# Experiments:
# [1] = human, 2 g/d oral Alda-341 for 2 weeks
# From the text: Saliva and plasma samples were collected at baseline, and at the time of surgery, and normal salivary gland tissue was collected at the time of surgery.
# Patients were required to be between 18 to 85 years of age, have elected to undergo surgery for recent diagnosis of parotid or submandibular gland tumor, and qualified for anesthesia. […] Patients were excluded from study participation if nursing or pregnant or diagnosed with kidney disease, end stage liver disease, metastatic cancer, or any unstable medical condition. […] Blood and saliva samples were collected at baseline and on the day of surgery. Normal and tumor salivary gland tissue were collected during surgery. Drug levels in tissue, plasma, and saliva were measured by the GCMS method described herein.
# An aliquot of the heptane layer was used for analysis. […] Samples volumes of 1 μL splitless were injected with an inlet temperature of 220° C. The flow rate was constant at 1 mL/min. An Agilent DB-5MS UI column was used (30 m length, 0.250 mm inner diameter, 0.25 micron film). […] Calibration curves were linear from 4 to 8000 ng/mL.
# [2] = tested on: SAS (human papillomavirus [HPV]-negative) head and neck squamous cell carcinoma cell line; test: Xenograft study, SAS; assay type: in vivo, SCID mice; conditions: Alda-341 from one week ahead of irradiation, during and post; 30 Gy over 5 fractions
# Experimental: (§1) Xenograft study: Six-week old SCID mice were purchased from the Jackson laboratory and five mice per group were used. SCC90 and SAS cells (2×10^6 cells/injection) were implanted into both flanks of each mouse. Alda-341 treated one week ahead of irradiation and continued during and post radiation. Total 30 Gy over 5 fractions in a week was delivered to the tumor with the rest of the body shielded. Tumor size was measured every 1-2 days. Tumor volume was calculated by the formula (π×length×width×height)/6.
# [3] = tested on: murine WT EpCAM+/CD24+-sorted cells; test: Annexin V assay; assay type: cell-based, mouse; conditions: 100 μM Alda-341; Annexin V and propidium iodide, FACS
# Experimental: Annexin V^+PI^+ are interpreted as late apoptotic cells and appear in the upper right quadrant. 5-6 replicates per group.
# Cells were dissociated from matrigel, stained with Biolegend's FITC Annexin V Apoptosis Detection Kit with Propidium Iodide ([…]), and analyzed by flow cytometry. Annexin V^+PI^− cells were analyzed as early apoptotic cells and Annexin V^+PI^+ cells were analyzed as late apoptotic cells. Five to six replicates per group were assayed.
# [4] = tested on: SSC90 (HPV-positive) head and neck squamous cell carcinoma cell line; test: Xenograft study, SSC90; assay type: in vivo, SCID mice; conditions: Alda-341 from one week ahead of irradiation, during and post; 30 Gy over 5 fractions
# Experimental: as §1
# [5] = molecular target: T1, ALDH3A1 (Homo sapiens, UniProt P30838); test: ALDH enzymatic assay (spectrophotometric), recombinant ALDH3A1; assay type: biochemical
# T1 sequence (P30838 1-453): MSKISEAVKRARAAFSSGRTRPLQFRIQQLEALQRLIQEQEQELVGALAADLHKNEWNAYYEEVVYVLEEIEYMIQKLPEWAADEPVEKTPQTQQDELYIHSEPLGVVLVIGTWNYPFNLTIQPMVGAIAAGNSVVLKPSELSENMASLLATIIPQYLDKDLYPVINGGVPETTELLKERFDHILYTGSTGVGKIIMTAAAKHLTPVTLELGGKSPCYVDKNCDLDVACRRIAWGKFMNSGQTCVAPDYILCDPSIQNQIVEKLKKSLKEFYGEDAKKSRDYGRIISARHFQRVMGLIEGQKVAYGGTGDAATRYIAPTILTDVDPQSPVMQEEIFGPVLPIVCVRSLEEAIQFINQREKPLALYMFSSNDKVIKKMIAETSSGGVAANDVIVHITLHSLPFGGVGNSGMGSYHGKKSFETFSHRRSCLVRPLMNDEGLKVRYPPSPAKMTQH
# From the text: To determine if ALDH3A1 activation is sufficient to protect salivary glands from radiation-induced dysfunction, a library of 135 traditional Chinese medicine extracts donated from Sun Ten Pharmaceutical Co., Taiwan, was screened using a spectroscopic enzyme activity assay and purified recombinant ALDH3A1. […] We then conducted high performance liquid chromatography (HPLC) fractionation of the extracts and nuclear magnetic resonance (NMR) characterization of the fractions. Based on the NMR fingerprint, we identified known constituents of similar fingerprints and purchased the commercially available compounds to test using the enzyme activity assay.
# (§2) ALDH enzymatic assay: ALDH1A1, ALDH1A2, 2, 3A1, 3A2, 4A1, 5A1, 7A1 were measured as previously described using 5 μg/ml of recombinant protein (Chen, C. H., Cruz, L. A., and Mochly-Rosen, D. (2015) Pharmacological recruitment of aldehyde dehydrogenase 3A1 (ALDH3A1) to assist ALDH2 in acetaldehyde and ethanol metabolism in vivo. Proceedings of the National Academy of Sciences of the United States of America 112, 3074-3079). […] Assays were conducted in 50 mM NaPPi buffer (pH 7.4) in the presence of 2.5 mM NAD^+ and 10 mM substrate and measured in triplicate at 25° C. Dose response curve fits and EC50's were calculated using GraphPad Prism 7 software.
# Activity measured in presence of compound concentrations from 6 nM to 400 μM.
# [6] = molecular target: T2, ALDH1A1 (Homo sapiens, UniProt P00352); test: ALDH fluorescence-coupled enzymatic assay, all-trans-retinal substrate, ALDH1A1; assay type: biochemical
# T2 sequence (P00352 1-501): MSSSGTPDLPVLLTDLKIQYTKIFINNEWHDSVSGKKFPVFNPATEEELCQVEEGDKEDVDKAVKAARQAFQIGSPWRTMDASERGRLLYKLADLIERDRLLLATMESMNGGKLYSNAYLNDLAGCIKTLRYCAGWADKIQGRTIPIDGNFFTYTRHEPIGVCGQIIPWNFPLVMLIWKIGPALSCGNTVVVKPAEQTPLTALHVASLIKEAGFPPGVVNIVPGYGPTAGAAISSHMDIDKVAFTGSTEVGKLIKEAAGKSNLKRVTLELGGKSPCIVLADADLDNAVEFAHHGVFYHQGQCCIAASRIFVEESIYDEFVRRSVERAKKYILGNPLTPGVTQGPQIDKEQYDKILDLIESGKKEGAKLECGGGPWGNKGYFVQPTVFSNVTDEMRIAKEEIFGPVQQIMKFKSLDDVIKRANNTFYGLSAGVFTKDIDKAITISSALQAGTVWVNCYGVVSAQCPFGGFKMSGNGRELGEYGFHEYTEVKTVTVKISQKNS
# Experimental: Assay conditions were modified from the original enzyme assay protocol above using 50 mM NaPPi buffer (pH 7.4), 2.5 mM NAD^+, 10 mM acetaldehyde or all-trans-retinal substrate with the addition of 1 U/mL diaphorase and 0.1 mM resazurin for the secondary reaction. Measurements were collected in triplicate at 25° C.
# [7] = molecular target: T3, ALDH2 (Homo sapiens, UniProt P05091); test: ALDH enzymatic assay, recombinant ALDH2; assay type: biochemical; conditions: 5 μg/ml recombinant enzyme, 10 mM acetaldehyde, 20 μM Alda-341
# T3 sequence (P05091 18-517): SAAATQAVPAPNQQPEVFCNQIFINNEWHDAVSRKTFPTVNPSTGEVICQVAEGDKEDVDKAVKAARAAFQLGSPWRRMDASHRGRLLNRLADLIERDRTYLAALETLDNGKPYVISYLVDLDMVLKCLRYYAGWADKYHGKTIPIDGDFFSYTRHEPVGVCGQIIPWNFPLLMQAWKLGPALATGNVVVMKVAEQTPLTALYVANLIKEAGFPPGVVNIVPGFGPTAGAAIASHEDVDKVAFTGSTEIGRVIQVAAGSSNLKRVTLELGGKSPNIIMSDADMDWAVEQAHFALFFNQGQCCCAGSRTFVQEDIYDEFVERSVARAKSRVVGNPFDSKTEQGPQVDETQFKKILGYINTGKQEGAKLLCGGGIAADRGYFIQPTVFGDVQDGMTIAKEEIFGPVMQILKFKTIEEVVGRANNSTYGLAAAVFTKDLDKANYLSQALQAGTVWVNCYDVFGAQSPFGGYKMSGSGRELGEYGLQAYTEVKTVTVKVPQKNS
# Experimental: as §2
smiles,measurement,setting,value
"C=C(C)[C@H]1CC=C(C)CC1 [Alda-341, D-limonene]",average plasma drug levels after treatment,[1],144.3 ng/mL
same,"tumor growth and protection of tumors from radiation, SAS xenograft",[2],did not increase tumor growth or protect tumors from radiation
same,fewer early and late apoptotic cells compared to vehicle control,[3],about 60%
same,"tumor growth and protection of tumors from radiation, SSC90 xenograft",[4],did not increase tumor growth or protect tumors from radiation
same,substrate specificity of increase in ALDH3A1 catalytic activity,"[5]; 10 mM acetaldehyde, propionaldehyde, benzaldehyde, cinnamaldehyde, decanal, heptaldehyde or 200 μM 4-hydroxynonenal, 100 μM compound",only increase the catalytic activity of ALDH3A1 towards small aldehydes like acetaldehyde and propionaldehyde but not aromatic or long-chain aldehydes
same,Amax,"[5]; normalized to baseline activity, GraphPad Prism curve fit",~4.6
same,EC50,"[5]; recombinant ALDH3A1, spectrophotometric enzyme activity assay, concentrations 6 nM to 400 μM",~14 µM
same,catalytic activity of all trans-retinal in ALDH1A1,[6],did not increase
same,catalytic activity of ALDH2,[7],did not increase

# — patent US20190060249A1 (priority 2017, published 2019)
